Literature values in PubChem BioAssay AID1259409 (Chemical Carcinogenesis Research Information System (CCRIS), 2018).

Tested on: rodent chemically induced tumor inhibition, incidence and multiplicity
Assay: CCRIS tumor inhibitor studies
Conditions: Carcinogen: 2,2'-DIHYDROXY-DI-N-PROPYLNITROSAMINE, 13147-25-6, Carcinogen: 2,2'-DIHYDROXY-DI-N-PROPYLNITROSAMINE, 13147-25-6, Dose [Inhibitor]: 0, Route [Inhibitor]: ORAL, Species: RAT, Strain/Sex: F344/MALE, Promoter: NONE USED

In the case of `CCCCCCCCCCCCCCCC(=O)CC(=O)CCCCCCCCCCCCCCC`, the “tumour outcome (control, treated, inhibition, significance)” value (36909-64-6, N-ETHYL-N-HYDROXYETHYL- NITROSAMINE, 3,2'DIMETHYL-4-A, 36909-64-6, N-ETHYL-N-HYDROXYETHYL- NITROSAMINE, 3,2'DIMETHYL-4-A, 0.2% IN DIET BEGINNING 1 WK POST LAST CARCINOGEN DOSE AND CONTINUING FOR 32 WK (STUDY DURATION: 36 WK), Target Tissue: Type of Lesion: URINARY BLADDER: CARCINOMA, Dose [Carcinogen]: 1000 MG/KG IP DHPN 2X, 1500 MG/KG GAV EHEN 2X AND 75 MG/KG SC DMAB 3X GIVEN OVER THE INITIAL 3 WK AT 3-4 D INTERVALS) is given as 1/14 (7%), 1/15 (7%), 0%, not significant, the “tumour outcome (control, treated, inhibition, significance)” value (53609-64-6, N-ETHYL-N-HYDROXYETHYL- NITROSAMINE, 3,2'-DIMETHYL-4-, 53609-64-6, N-ETHYL-N-HYDROXYETHYL- NITROSAMINE, 3,2'-DIMETHYL-4-, 0.2% IN DIET BEGINNING 1 WK POST LAST CARCINOGEN DOSE AND CONTINUING FOR 32 WK (STUDY DURATION: 36 WK), Target Tissue: Type of Lesion: LARGE INTESTINE: ADENOMA, Dose [Carcinogen]: 1000 MG/KG IP DHPN 2X, 1500 MG/KG GAV EHEN 2X AND 75 MG/KG SC DMAB 3X GIVEN OVER THE INITIAL 3 WK PERIOD AT 3-4 D INTERV) is given as 7/14 (50%), 7,15 (47%), 6%, not calculated and the outcome (53609-64-6, N-ETHYL-N-HYDROXYETHYL- NITROSAMINE, 3,2'-DIMETHYL-4-, 53609-64-6, N-ETHYL-N-HYDROXYETHYL- NITROSAMINE, 3,2'-DIMETHYL-4-, 0.2% IN DIET BEGINNING 1 WK POST LAST CARCINOGEN DOSE AND CONTINUING FOR 32 WK (STUDY DURATION: 36 WK), Target Tissue: Type of Lesion: URINARY BLADDER: PAPILLOMA, Dose [Carcinogen]: 1000 MG/KG IP DHPN 2X, 1500 MG/KG GAV EHEN 2X AND 75 MG/KG SC DMAB 3X GIVEN OVER THE INITIAL 3 WK PERIOD AT 3-4 D INTERV) is given as 0/14 (0%), 3/15 (20%), -100%, not calculated. For the same molecule, the “tumour outcome (control, treated, inhibition, significance)” value (53609-64-6, N-ETHYL-N-HYDROXYETHYL- NITROSAMINE, 3,2'-DIMETHYL-4-, 53609-64-6, N-ETHYL-N-HYDROXYETHYL- NITROSAMINE, 3,2'-DIMETHYL-4-, 02% IN DIET BEGINNING 1 WK POST LAST CARCINOGEN DOSE AND CONTINUING FOR 32 WK (STUDY DURATION: 36 WK), Target Tissue: Type of Lesion: LUNG: CARCINOMA, Dose [Carcinogen]: 1000 MG/KG IP DHPN 2X , 1500 MG/KG GAV EHEN 2X AND 75 MG/KG SC DMAB 3X GIVEN OVER THE INITIAL 3 WK PERIOD AT 3-4 D INTER) was 1/14 (7%), 3/15 (20%), -186%, not calculated, the “tumour outcome (control, treated, inhibition, significance)” value (53609-64-6, N-ETHYL-N-HYDROXYETHYL- NITROSAMINE, 3,2'DIMETHYL-4-A, 53609-64-6, N-ETHYL-N-HYDROXYETHYL- NITROSAMINE, 3,2'DIMETHYL-4-A, 0.2% IN DIET BEGINNING 1 WK POST LAST CARCINOGEN DOSE AND CONTINUING FOR 32 WK (STUDY DURATION: 36 WK), Target Tissue: Type of Lesion: LIVER: HEPATOCELLULAR CARCINOMA, Dose [Carcinogen]: 1000 MG/KG IP DHPN 2X, 1500 MG/KG GAV EHEN 2X AND 75 MG/KG SC DMAB 3X GIVEN OVER THE INITIAL 3 WK AT 3-4 D INTERVALS) was 6/14 (43%), 1/15 (7%), 84%, p<0.05 and the “tumour outcome (control, treated, inhibition, significance)” value (53609-64-6, N-ETHYL-N-HYDROXYETHYLNITROSAMINE, 3,2'-DIMETHYL-1,4-, 53609-64-6, N-ETHYL-N-HYDROXYETHYLNITROSAMINE, 3,2'-DIMETHYL-1,4-, 0.2% IN DIET FOR 4 WK BEGINNING 1 D PRIOR TO FIRST CARCINOGEN DOSE (STUDY DURATION: 36 WK), Target Tissue: Type of Lesion: KIDNEY: ADENOMA, Dose [Carcinogen]: 1000 MG/KG BW DHPN TWICE, 1500 MG/KG EHEN TWICE, 75 MG/KG BW DMAB 3 TIMES, SEQUENTIALLY OVER 3 WK) was 6/10 (60%), 7/13 (54%), 10%, not significant. The “tumour outcome (control, treated, inhibition, significance)” value (53609-64-6, N-ETHYL-N-HYDROXYETHYLNITROSAMINE, 3,2'-DIMETHYL-1,4-, 53609-64-6, N-ETHYL-N-HYDROXYETHYLNITROSAMINE, 3,2'-DIMETHYL-1,4-, 0.2% IN DIET FOR 4 WK BEGINNING 1 D PRIOR TO FIRST CARCINOGEN DOSE (STUDY DURATION: 36 WK), Target Tissue: Type of Lesion: LUNG: ADENOMA, Dose [Carcinogen]: 1000 MG/KG BW DHPN TWICE, 1500 MG/KG EHEN TWICE, 75 MG/KG BW DMAB 3 TIMES, SEQUENTIALLY OVER 3 WK) was 5/10 (50%), 6/13 (46%), 8%, not significant, the “tumour outcome (control, treated, inhibition, significance)” value (53609-64-6, N-ETHYL-N-HYDROXYETHYLNITROSAMINE, 3,2'-DIMETHYL-4-AMINO-, 53609-64-6, N-ETHYL-N-HYDROXYETHYLNITROSAMINE, 3,2'-DIMETHYL-4-AMINO-, 0.2% IN DIET FOR 32 WK BEGINNING 1 WK POST CARCINOGEN TREATMENT (STUDY DURATION: 36 WK), Target Tissue: Type of Lesion: KIDNEY: ADENOMA, Dose [Carcinogen]: 1000 MG/KG BW DHPN TWICE, 1500 MG/KG BW EHEN TWICE, 75 MG/KG BW 3 TIMES ADMINISTERED OVER FIRST 3 WK) was 6/14 (43%), 5/15 (33%), 23% , not significant and the “tumour outcome (control, treated, inhibition, significance)” value (53609-64-6, N-ETHYL-N-HYDROXYETHYLNITROSAMINE, 3,2'-DIMETHYL-4-AMINO-, 53609-64-6, N-ETHYL-N-HYDROXYETHYLNITROSAMINE, 3,2'-DIMETHYL-4-AMINO-, 0.2% IN DIET FOR 32 WK BEGINNING 1 WK POST CARCINOGEN TREATMENT (STUDY DURATION: 36 WK), Target Tissue: Type of Lesion: KIDNEY: NEPHROBLASTOMA, Dose [Carcinogen]: 1000 MG/KG BW DHPN TWICE, 1500 MG/KG BW EHEN TWICE, 75 MG/KG BW 3 TIMES ADMINISTERED OVER FIRST 3 WK) was 2/14 (14%), 2/15 (13%), 7%, not significant. For the same molecule, the “tumour outcome (control, treated, inhibition, significance)” value (53609-64-6, N-ETHYL-N-HYDROXYETHYLNITROSAMINE, 3,2'-DIMETHYL-4-AMINO-, 53609-64-6, N-ETHYL-N-HYDROXYETHYLNITROSAMINE, 3,2'-DIMETHYL-4-AMINO-, 0.2% IN DIET FOR 32 WK BEGINNING 1 WK POST CARCINOGEN TREATMENT (STUDY DURATION: 36 WK), Target Tissue: Type of Lesion: KIDNEY: TRANSITIONAL CELL CARCINOMA, Dose [Carcinogen]: 1000 MG/KG BW DHPN TWICE, 1500 MG/KG BW EHEN TWICE, 75 MG/KG BW 3 TIMES ADMINISTERED OVER FIRST 3 WK) was 1/14 (7%), 1/15 (7%), 0%, not significant.
